Data on 12 molecules can be found in patent publication US5278324A, “Water soluble derivatives of taxol” (Virginia Tech Intellectual Properties, Inc., priority 1991, dated 1994).

Structures are written as SMILES. Counter-ions that a name gives are not always drawn.

The subject of series [1] is tubulin. The settings on record: cited from earlier work.
Series [2] has as its system cell culture. The note with it: Magri and Kingston 1988; cited from earlier work.
The conditions of series [3]: in vivo conditions; cited from earlier work.
Series [4] can be described thus: Biological testing of 2'-[(3-sulfo-1-oxopropyl)oxy]taxol sodium salt.
Series [5] is described as follows: Water solubility by partition between 1-octanol and water, relative to taxol. The settings on record: for times more water soluble than taxol / solubilities greater than taxol: 1-octanol/water partition; for water solubility (in words): versus taxol or the other derivatives; for solubilities greater than taxol: Table 9 discussion. The method, then: Water solubilities for all compounds were determined by the partition coefficient between 1-octanol and water. Octanol saturated with distilled water and distilled water saturated with octanol were used for the solubility determinations.
Taxol's water solubility was determined by dissolving 1.6 mg of taxol in 10 ml of distilled water saturated with 1-octanol in a 60 ml separatory funnel, and 10 ml of 1-octanol saturated with distilled water was then added. The funnel was shaken, and allowed to stand for about 30 minutes until the organic and aqueous phases separated. UV absorption measurements at 228 nm were made of the aqueous layer and/or octanol layer, with the octanol layer being diluted 5 times before measurement.

The conditions of series [6]: Deutsch et al. 1989; cited from earlier work.
The conditions of series [7]: cited from earlier work.
A short description of series [8]: Stability of 2'-γ-aminobutyryltaxol formate (proton NMR and TLC). In kind it is physicochemical. The settings on record: after a few hours. The text has this: 2'-γ-aminobutyryltaxol formate was synthesized by coupling taxol with N-carbobenzyloxy (CBZ) -γ-aminobutyric acid followed by deprotection of the amine. Taxol was reacted with N-CBZ-γ- aminobutyric acid using dicyclohexyl-carbodiimide (DCC) as the coupling agent. The resulting 2'-NCBZ-γ-aminobutyryl taxol was produced in 75% yield after purification via preparative TLC with silica gel and 3/2 hexane/ethyl acetate. […] Deprotection of the 2'-N-CBZ-γ-aminobutyryltaxol was effected using 5% Pd/C as a catalyst and formic acid as a hydrogen source. […] NMR confirmed the synthesis of the 2'-γ-aminobutyryl taxol formate. […] This instability precluded further consideration of 2'-γ-amino-butyryltaxol formate as a prodrug form of taxol.

The nature of series [9]: Aqueous solubility (statements in words). In kind it is physicochemical. The note with it: versus the neutral form.
The conditions of series [10]: Magri and Kingston 1988; cited from earlier work.
The test system of series [11] is P-388. The settings on record: compared with taxol; cited from earlier work.
Series [12] relates to acute leukemia and melanoma. The settings on record: preliminary studies; cited from earlier work.
In series [13] the test system is several tumor systems. The settings on record: background statement; cited from earlier work.
For series [14] the following is noted: cited from earlier work. This is another data set of the same source.
The conditions of series [15]: cited from earlier work. This is another data set of the same source.
For series [16], the system named is drug-refractory ovarian cancer. The settings on record: McGuire et al. 1989; cited from earlier work.
The conditions of series [17]: Magri and Kingston; cited from earlier work.

As to `CC[C@]1(O)C[C@@H]2CN(CCc3c([nH]c4ccccc34)[C@@](C(=O)OC)(c3cc4c(cc3OC)N(C)[C@H]3[C@@](O)(C(=O)OC)[C@H](OC(C)=O)[C@]5(CC)C=CCN6CC[C@]43[C@@H]65)C2)C1` [vinblastine], the “effect on microtubule formation” value in series [1] was “prevent microtubule formation”.
As for `CC(=O)O[C@H]1C(=O)[C@@]2(C)[C@H]([C@H](OC(=O)c3ccccc3)[C@]3(O)C[C@H](OC(=O)[C@H](OC(C)=O)[C@@H](NC(=O)c4ccccc4)c4ccccc4)C(C)=C1C3(C)C)[C@]1(OC(C)=O)CO[C@@H]1C[C@@H]2O` [2'-acetyltaxol], the “activity in a cell culture bioassay” value in series [2] is given as “both showed activity in a cell culture bioassay”. In [3], the “hydrolysis of acyl substituents at the 2' position” value was “readily hydrolyzed under in vivo conditions”.
Consider `CC(=O)O[C@H]1C(=O)[C@@]2(C)[C@H]([C@H](OC(=O)c3ccccc3)[C@]3(O)C[C@H](OC(=O)[C@H](OC(=O)CCS(=O)(=O)O)[C@@H](NC(=O)c4ccccc4)c4ccccc4)C(C)=C1C3(C)C)[C@]1(OC(C)=O)CO[C@@H]1C[C@@H]2O` [2'-[(3-sulfo-1-oxopropyl)oxy]taxol sodium salt], for which the bioactivity result in series [4] is reported as “bioactive”. Also, the “times more water soluble than taxol” value in series [5] worked out at 210 times. Further, the “water solubility (in words)” value is “improved water solubility” in series [5] (listed as 2'-[(3-sulfo-l- oxopropyl)oxy]taxol sodium salt, sodium salt) and “highest water solubility” in series [5] (listed as 2'-acryloyltaxol derivative, sodium salt).
`CC(=O)O[C@H]1C(=O)[C@]2(C)[C@@H](OC(C)=O)C[C@H]3OC[C@@]3(OC(C)=O)[C@H]2[C@H](OC(=O)c2ccccc2)[C@]2(O)C[C@H](OC(=O)[C@H](OC(C)=O)[C@@H](NC(=O)c3ccccc3)c3ccccc3)C(C)=C1C2(C)C` [2',7-diacetyltaxol]: the “activity in a cell culture bioassay” value in series [2] is listed as “both showed activity in a cell culture bioassay”. Also, in series [3], the “hydrolysis of acyl substituents at the 2' position” value was “readily hydrolyzed under in vivo conditions”.
On to `CC(=O)O[C@H]1C(=O)[C@@]2(C)[C@H]([C@H](OC(=O)c3ccccc3)[C@]3(O)C[C@H](OC(=O)[C@H](OC(=O)CCCC(=O)NCCCN(C)C)[C@@H](NC(=O)c4ccccc4)c4ccccc4)C(C)=C1C3(C)C)[C@]1(OC(C)=O)CO[C@@H]1C[C@@H]2O`, for which, in series [6], the antitumor activity result is “good solubility and bioactivity”. Besides, the solubility result in [7] (Deutsch et al. 1989) was “good solubility”.
For `CC(=O)O[C@H]1C(=O)[C@@]2(C)[C@H]([C@H](OC(=O)c3ccccc3)[C@]3(O)C[C@H](OC(=O)[C@H](OC(=O)CCCN)[C@@H](NC(=O)c4ccccc4)c4ccccc4)C(C)=C1C3(C)C)[C@]1(OC(C)=O)CO[C@@H]1C[C@@H]2O` [2'-γ-aminobutyryltaxol formate, 2'-γ-amino-butyryltaxol formate], in series [8], the “stability (proton NMR and TLC)” value is on record as “decomposed back to taxol”. Also, the “stability in methanol solution” value in series [8] (methanol solution) was “unstable in methanol solution and decomposed back to taxol after a few hours”. Besides, the “water solubility of formate salt” value in series [9] is recorded as “more water soluble than the neutral form”.
With `CC(=O)O[C@H]1C(=O)[C@@]2(C)[C@H]([C@H](OC(=O)c3ccccc3)[C@]3(O)C[C@H](OC(=O)[C@H](O[Si](C)(C)C(C)(C)C)[C@@H](NC(=O)c4ccccc4)c4ccccc4)C(C)=C1C3(C)C)[C@]1(OC(C)=O)CO[C@@H]1C[C@@H]2O` [2'-(t-butyldimethylsilyl) taxol], in [10], the biological activity result is “essentially inactive”.
On to `CC(=O)O[C@H]1C(=O)[C@@]2(C)[C@H]([C@H](OC(=O)c3ccccc3)[C@]3(O)C[C@H](OC(=O)[C@H](OC(=O)CCC(=O)NCCCS(=O)(=O)O)[C@@H](NC(=O)c4ccccc4)c4ccccc4)C(C)=C1C3(C)C)[C@]1(OC(C)=O)CO[C@@H]1C[C@@H]2O` [2'-{[4-((3-sulfopropyl)-amino)-1,4-dioxobutyl]oxy}taxol sodium salt], for which, in [5], the “times more water soluble than taxol” value is listed as 118 times and the “solubilities greater than taxol” value was “more than 100 times”.
For `CC(=O)O[C@H]1C(=O)[C@@]2(C)[C@H]([C@H](OC(=O)c3ccccc3)[C@]3(O)C[C@H](OC(=O)[C@H](OC(=O)CCC(=O)O)[C@@H](NC(=O)c4ccccc4)c4ccccc4)C(C)=C1C3(C)C)[C@]1(OC(C)=O)CO[C@@H]1C[C@@H]2O` [2'-succinyltaxol], the “P-388 in vivo activity” value in series [11] is given as “much diminished P-388 in vivo activity as compared with taxol”.
On to `CC(=O)O[C@H]1C(=O)[C@@]2(C)[C@H]([C@H](OC(=O)c3ccccc3)[C@]3(O)C[C@H](OC(=O)[C@H](OC(=O)CCC(=O)NCCS(=O)(=O)O)[C@@H](NC(=O)c4ccccc4)c4ccccc4)C(C)=C1C3(C)C)[C@]1(OC(C)=O)CO[C@@H]1C[C@@H]2O` [2'-{[4-((2-sulfoethyl)amino)-1,4-dioxo-butyl]oxy}taxol sodium salt], for which, in series [5], the “times more water soluble than taxol” value was 191 times, the “solubilities greater than taxol” value was “more than 100 times” and the “water solubility (in words)” value is on record as “much greater water solubility than the 3-amino-1-sulfopropionic acid derivative of 2'-succinyltaxol”.
Take `CC(=O)O[C@H]1C(=O)[C@@]2(C)[C@H]([C@H](OC(=O)c3ccccc3)[C@]3(O)C[C@H](OC(=O)[C@H](O)[C@@H](NC(=O)c4ccccc4)c4ccccc4)C(C)=C1C3(C)C)[C@]1(OC(C)=O)CO[C@@H]1C[C@@H]2O` [Taxol, taxol]: the “Relative Solubility (water solubility relative to taxol)” value in series [5] amounted to 1. In [12], the “activity in acute leukemia and melanoma” value was “marginal activity in acute leukemia and melanoma”. Moreover, in series [13], the “activity in tumor systems” value was “has shown activity in several tumor systems”. The “effect on microtubule formation” value in series [1] was “promotes formation of the microtubules”. In addition, the “effect on depolymerization of tubulin” value in series [1] (mitotic spindle microtubules) is recorded as “prevents depolymerization of the tubulin”. Moreover, the stability in base entry in series [14] (base) is “readily hydrolyzed in base”. Further, the “toxic effects in phase 1 clinical trials” value in [15] is listed as “did not show excessive toxic effects”. Besides, the “water solubility of taxol” value in series [7] (background statement) is reported as “low water solubility”. The “activity against drug-refractory ovarian cancer” value in series [16] is listed as “active agent against drug-refractory ovarian cancer”.
Turning to `CC(=O)O[C@H]1C(=O)[C@@]2(C)[C@H]([C@H](OC(=O)c3ccccc3)[C@]3(O)C[C@H](OC(=O)[C@H](OC(=O)CCN)[C@@H](NC(=O)c4ccccc4)c4ccccc4)C(C)=C1C3(C)C)[C@]1(OC(C)=O)CO[C@@H]1C[C@@H]2O` [2'-(β-alanyl)taxol], the stability entry in [14] (Magri and Kingston) is listed as “unstable”. Moreover, the “activity in vivo and in vitro” value in [17] was “active in vivo and in vitro”.
